Laboratory results reported in patent US11207431B2, “HDAC6 inhibitors and imaging agents” (The General Hospital Corporation, priority 2017, dated 2021).

Columns and labels:
[1] = target: HDAC6 (Homo sapiens (Human), UniProt Q9UBN7); assay: IC50 assay by Nanosyn (Caliper microfluidics mobility shift detection); type: biochemical; settings: Nanosyn (Table 1A)
[2] = test system: Human iPSC-derived neural progenitor cells; assay: Acetylation level assay (Western blot); type: cell-based; settings: 6 h at 37° C.

HDAC6, sequence (Q9UBN7 whole entry): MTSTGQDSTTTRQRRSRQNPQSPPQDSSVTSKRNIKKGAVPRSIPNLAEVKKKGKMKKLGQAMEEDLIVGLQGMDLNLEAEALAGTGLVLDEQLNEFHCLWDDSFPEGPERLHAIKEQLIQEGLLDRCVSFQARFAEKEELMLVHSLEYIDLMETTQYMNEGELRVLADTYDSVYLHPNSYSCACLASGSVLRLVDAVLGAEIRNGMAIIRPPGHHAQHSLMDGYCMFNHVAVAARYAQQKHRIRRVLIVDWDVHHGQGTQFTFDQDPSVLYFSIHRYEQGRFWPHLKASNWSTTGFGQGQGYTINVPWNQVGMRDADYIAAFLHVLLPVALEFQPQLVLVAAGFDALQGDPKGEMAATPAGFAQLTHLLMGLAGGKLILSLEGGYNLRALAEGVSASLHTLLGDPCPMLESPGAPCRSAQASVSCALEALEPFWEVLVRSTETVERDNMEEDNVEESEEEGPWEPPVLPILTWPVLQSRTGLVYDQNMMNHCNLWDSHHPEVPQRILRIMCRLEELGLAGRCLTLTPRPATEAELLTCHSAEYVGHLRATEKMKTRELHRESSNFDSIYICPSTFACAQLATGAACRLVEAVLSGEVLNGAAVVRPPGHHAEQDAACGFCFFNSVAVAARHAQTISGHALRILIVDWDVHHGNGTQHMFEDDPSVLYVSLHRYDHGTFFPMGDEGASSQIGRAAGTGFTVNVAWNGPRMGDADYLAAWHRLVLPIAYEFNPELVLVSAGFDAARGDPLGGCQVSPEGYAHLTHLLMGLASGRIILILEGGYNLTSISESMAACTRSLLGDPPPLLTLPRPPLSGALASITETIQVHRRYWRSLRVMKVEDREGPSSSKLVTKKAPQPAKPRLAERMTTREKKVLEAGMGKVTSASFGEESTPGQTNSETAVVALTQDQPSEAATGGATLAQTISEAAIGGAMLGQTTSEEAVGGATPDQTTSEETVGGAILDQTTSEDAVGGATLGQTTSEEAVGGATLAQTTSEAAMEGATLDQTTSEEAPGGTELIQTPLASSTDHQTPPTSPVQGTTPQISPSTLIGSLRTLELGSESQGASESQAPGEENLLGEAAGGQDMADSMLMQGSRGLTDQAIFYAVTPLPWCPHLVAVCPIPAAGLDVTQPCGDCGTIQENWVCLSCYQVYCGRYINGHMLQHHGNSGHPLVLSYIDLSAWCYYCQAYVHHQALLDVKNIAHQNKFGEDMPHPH

SMILES	IC50 [1] [nM]	Histone acetylation (H3K9 and H4K12) ([2]; 10 μM)	amount of cellular acetyl-α-Tubulin ([2]; ACY1215 5 μM, other compounds 10 μM)
O=C(NO)c1ccc(CNCC23CC4CC(CC(C4)C2)C3)c(Br)c1 [Example 15, 4-((((adamantan-1-yl)methyl)amino)methyl)-3-bromo-N-hydroxybenzamide]	59.9		
CCCCCN(Cc1ccc(C(=O)NO)cc1)CC1CCC2CC1C2(C)C (stereo not shown) [Example 24, 4-((((6,6-dimethylbicyclo[3.1.1]heptan-2-yl)methyl)(pentyl)amino)methyl)-N-hydroxybenzamide]	1190		
CCC(NCc1ccc(C(=O)NO)cc1)C12CC3CC(CC(C3)C1)C2 (stereo not shown) [Example 21, 4-(((1-((3r,5r,7r)-adamantan-1-yl)propyl)amino)methyl)-N-hydroxybenzamide]	213		
O=C(NO)c1ccc(CNCC23CC4CC(CC(C4)C2)C3)c(F)c1 [Example 16, 4-(((((3r,5r,7r)-adamantan-1-yl)methyl)amino)methyl)-3-fluoro-N-hydroxybenzamide]	12		
O=C(NO)c1ccc(CNC23CC4CC(CC(C4)C2)C3)cc1 [Example 18, 4-((((3s,5s,7s)-adamantan-1-yl)amino)methyl)-N-hydroxybenzamide]	1380		
O=C(NO)c1ccc(CNCC23CC4CC(CC(C4)C2)C3)nc1 [Example 13, 6-((((adamantan-1-yl)methyl)amino)methyl)-N-hydroxynicotinamide]	26.7		
O=C(NO)c1cc(F)c(CNCC23CC4CC(CC(C4)C2)C3)c(F)c1 [Example 9, 4-((((Adamantan-1-yl)methyl)amino)methyl)-3,5-difluoro-N-hydroxybenzamide]	13.6		
CN(Cc1ccc(C(=O)NO)cc1)CC12CC3CC(CC(C3)C1)C2 [Example 12, 4-(((((3r,5r,7r)-adamantan-1-yl)methyl)(methyl)amino)methyl)-N-hydroxybenzamide]	81		
O=C(NO)c1ccc(CNCC23CC4CC(CC(C4)C2)C3)cc1F [Example 8, 4-((((Adamantan-1-yl)methyl)amino)methyl)-2-fluoro-N-hydroxybenzamide]	89		
O=C(NO)c1ccc(CNCC23CC4CC(CC(C4)C2)C3)c(Cl)c1 [Example 14, 4-((((adamantan-1-yl)methyl)amino)methyl)-3-chloro-N-hydroxybenzamide]	74.8		
O=C(NO)c1ccc(CNCC23CC4CC(CC(C4)C2)C3)cc1 [Example 17, 4-(((((3r,5r,7r)-adamantan-1-yl)methyl)amino)methyl)-N-hydroxybenzamide]	35		
O=C(NO)c1ccc(CNCC23CC4CC(CC(C4)C2)C3)c(C(F)(F)F)c1 [Example 10, 4-((((adamantan-1-yl)methyl)amino)methyl)-3-trifluoromethyl-N-hydroxybenzamide]	1020		
CC(=O)Nc1ccc(C(=O)Nc2ccccc2N)cc1 [CI-994, tacedinaline]		significantly increased	did not increase
CC1(C)C2CCC(CNCc3ccc(C(=O)NO)cc3)C1C2 (stereo not shown) [Example 23, 4-((((6,6-dimethylbicyclo[3.1.1]heptan-2-yl)methyl)amino)methyl)-N-hydroxybenzamide]	149		
Cc1cc(C(=O)NO)ccc1CNCC12CC3CC(CC(C3)C1)C2 [Example 11, 4-((((adamantan-1-yl)methyl)amino)methyl)-3-methyl-N-hydroxybenzamide]	574		
O=C(NO)c1ccc(CNCC2CCCCC2)cc1 [Example 25, 4-(((cyclohexylmethyl)amino)methyl)-N-hydroxybenzamide]	84		
CC(CC12CC3CC(CC(C3)C1)C2)NCc1ccc(C(=O)NO)cc1 (stereo not shown) [Example 19, 4-(((1-(adamantan-1-yl)propan-2-yl)amino)methyl)-N-hydroxybenzamide]	323		
CCC(N(C)Cc1ccc(C(=O)NO)cc1)C12CC3CC(CC(C3)C1)C2 (stereo not shown) [Example 22, 4-(((1-((3r,5r,7r)-adamantan-1-yl)propyl)(methyl)amino)methyl)-N-hydroxybenzamide]	121		
